ChEMBL document CHEMBL1140598, “A review of anti-infective and anti-inflammatory chalcones” (Eur J Med Chem, 2007)

Test system: Mycobacterium tuberculosis variant bovis
Assay: Antibacterial activity against Mycobacterium bovis
Format: functional

Q: How did the MIC turn out when `C=CC(C)(C)c1cc(/C=C/C(=O)c2ccc(O)cc2)c(OC)cc1O` [LICOAGROCHACONE A] was run?
A: Its MIC is no more than 20 µg/mL.
